Experimental data as given in PubChem BioAssay AID1963868 (Molecular Pharmacology Branch, DTP, NCI, 2024).

Test system: KRAS PDC tumor spheroids (HUVEC+MSC), viability
Test: Anticancer human tumor 254851-301-R-J1-PDC patient-derived colon carcinoma cell line growth inhibition [KRAS2]
Details: for viability, T/C: stronger effect = lower value
Excerpt: Multicellular complex tumor spheroid response to RAS pathway inhibitors in combination with a targeted agents in patient-derived cell lines with oncogenic KRAS variants from multiple cancer types
A high-throughput screen of multi-cell type tumor spheroids was designed to identify active combinations of targeted small molecules and KRAS pathway inhibitors. Complex spheroids include a stromal component modeled by human endothelial cells (HUVEC) and fibroblasts modeled by human mesenchymal stem cells (MSCs). The concentration ranges selected for each drug and investigational agent were based upon clinically achievable concentrations if the clinical Cmax of the agent was known.
Compounds. The drugs and investigational agents: BI-3406 (NSC825286), BAY-293 (NSC824723), batoprotafib (TNO155; NSC825523), sotorasib (AMG 510; NSC818433), MRTX1257 (NSC819558), elimusertib (BAY 1895344; NSC800525), molibresib (GSK525762; NSC774829), temuterkib (LY3214996; NSC803410), venetoclax (NSC766270), alisertib (NSC759677), olaparib (NSC753686), talazoparib (NSC767125), erdafitinib (NSC781556), ipatasertib (NSC767898), cabozantinib (NSC761068), nintedanib (NSC756659), abemaciclib (NSC768073), docetaxel (NSC628503), trametinib (NSC758246), and sapanisertib (NSC764658) were obtained from the National Cancer Institute (NCI) Developmental Therapeutics Program Chemical Repository. The FDA-approved anticancer drug set is available from the Developmental Therapeutics Program. […] The stock solutions were prepared in dimethyl sulfoxide (DMSO, Sigma-Aldrich, St. Louis, MO, cat. D2650) at 800-fold the tested concentration and stored at -70 degrees C prior to their use. All drugs and investigational agents were tested over a range starting from a high concentration at or near the clinical Cmax and decreasing in half-log increments. If the clinical Cmax for an agent had not been determined, the highest concentration tested was 10 microM.
Cell Culture. All cells were maintained in an incubator at 37 degrees C and 5% CO2 with 95% humidity. The PDC lines were cultured according to standard operating procedures established by the NCI PDMR (https://pdmr.cancer.gov/sops/default.htm). Briefly, all PDCs were thawed and cultured in Matrigel-coated flasks prepared with a working solution of 1X Ham's F-12 nutrient mix, without supplementation (Invitrogen, Waltham, MA, cat. 11765054), 100 U/mL penicillin-streptomycin (Invitrogen, cat. 15140122), and 2.5% Matrigel (Corning Inc., Corning, NY, cat. 354248) for the first three passages. All PDCs were cultured in complete DMEM/F-12 media containing advanced DMEM/F-12 (Invitrogen, cat. 12634028), 4.9% defined fetal bovine serum, heat inactivated (HyClone Laboratories Inc., Logan, UT, cat. SH30070.03HI), 389 ng/mL hydrocortisone (Sigma-Aldrich, cat. H4001), 9.7 ng/mL human EGF recombinant protein (Invitrogen, cat. PHG0313), 23.4 microg/mL adenine (Sigma-Aldrich, cat. A2786), 97.3 U/mL penicillin-streptomycin (Invitrogen, cat. 15140122), 1.9 mM L-glutamine (Invitrogen, cat. 25030081), and 9.7 microM Y-27632 dihydrochloride (Tocris Bioscience, Bristol, United Kingdom, cat. 1254). The PDCs were cultured in complete DMEM/F12 media without 9.7 microM Y-27632 dihydrochloride for at least two passages prior to the screen. The established cell line HOP-62 was cultured in RPMI 1640 medium, HEPES (Invitrogen, cat. 22400105) with 10% defined fetal bovine serum (HyClone Laboratories Inc., cat. SH30070.03) and 2 mM L-glutamine (Invitrogen, cat. 25030081). The pooled donor HUVEC were cultured in endothelial cell growth medium 2 (PromoCell, Heidelberg, Germany, cat. C-22011) and the hMSC were cultured in mesenchymal stem cell growth medium 2 (PromoCell, cat. C-28009). For all experiments, HUVEC and hMSC were used at passages </=5, while the malignant cell lines were used at passages </=15. […]

[1] = curve of first compound, second compound 0.1 µM
[2] = curve of first compound, second compound 0.316 µM
[3] = curve of first compound, second compound 1 µM
[4] = curve of first compound, second compound 3.16 µM
[5] = curve of first compound, second compound 10 µM
[6] = second compound 0.1 µM, first compound 0.0316 µM
[7] = second compound 0.1 µM, first compound 0.1 µM
[8] = second compound 0.316 µM, first compound 0.0316 µM
[9] = second compound 0.316 µM, first compound 0.1 µM
[10] = second compound 1 µM, first compound 0.0316 µM
[11] = second compound 1 µM, first compound 0.1 µM
[12] = second compound 3.16 µM, first compound 0.0316 µM
[13] = second compound 3.16 µM, first compound 0.1 µM
[14] = second compound 10 µM, first compound 0.0316 µM
[15] = second compound 10 µM, first compound 0.1 µM
[16] = compound alone, run of 07/12/2021
[17] = compound alone, run of 07/19/2021
[18] = compound alone, run of 07/26/2021
[19] = second compound 0.1 µM, first compound 0.316 µM
[20] = second compound 0.1 µM, first compound 1 µM
[21] = second compound 0.1 µM, first compound 3.16 µM
[22] = second compound 0.1 µM, first compound 10 µM
[23] = second compound 0.316 µM, first compound 0.316 µM
[24] = second compound 0.316 µM, first compound 1 µM
[25] = second compound 0.316 µM, first compound 3.16 µM
[26] = second compound 0.316 µM, first compound 10 µM
[27] = second compound 1 µM, first compound 0.316 µM
[28] = second compound 1 µM, first compound 1 µM
[29] = second compound 1 µM, first compound 3.16 µM
[30] = second compound 1 µM, first compound 10 µM
[31] = second compound 3.16 µM, first compound 0.316 µM
[32] = second compound 3.16 µM, first compound 1 µM
[33] = second compound 3.16 µM, first compound 3.16 µM
[34] = second compound 3.16 µM, first compound 10 µM
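Also: spheroids exposed to compounds for seven days before readout.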
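For viability, T/C in this document: 100% = DMSO vehicle control luminescence of the spheroids.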

CN(C)C/C=C/C(=O)Nc1cc2c(Nc3ccc(F)c(Cl)c3)ncnc2cc1O[C@H]1CCOC1 + CNCc1ccccc1-c1csc(C(C)Nc2nc(C)nc3cc(OC)c(OC)cc23)c1
IC50 [1]: > 0.1 µM
IC50 [2]: > 0.1 µM
IC50 [3]: > 0.1 µM
IC50 [4]: > 0.1 µM
IC50 [5]: < 0.000316 µM
viability, T/C (second compound 0.1 µM, first compound 0.000316 µM): 99.9%
viability, T/C (second compound 0.1 µM, first compound 0.001 µM): 105%
viability, T/C (second compound 0.1 µM, first compound 0.00316 µM): 96.4%
viability, T/C (second compound 0.1 µM, first compound 0.01 µM): 94.7%
viability, T/C [6]: 93.1%
viability, T/C [7]: 72.8%
viability, T/C (second compound 0.316 µM, first compound 0.000316 µM): 104%
viability, T/C (second compound 0.316 µM, first compound 0.001 µM): 98.3%
viability, T/C (second compound 0.316 µM, first compound 0.00316 µM): 90.4%
viability, T/C (second compound 0.316 µM, first compound 0.01 µM): 87.9%
viability, T/C [8]: 82.8%
viability, T/C [9]: 72.3%
viability, T/C (second compound 1 µM, first compound 0.000316 µM): 97.1%
viability, T/C (second compound 1 µM, first compound 0.001 µM): 89.2%
viability, T/C (second compound 1 µM, first compound 0.00316 µM): 84.6%
viability, T/C (second compound 1 µM, first compound 0.01 µM): 82%
viability, T/C [10]: 75.5%
viability, T/C [11]: 79.9%
viability, T/C (second compound 3.16 µM, first compound 0.000316 µM): 84%
viability, T/C (second compound 3.16 µM, first compound 0.001 µM): 82.1%
viability, T/C (second compound 3.16 µM, first compound 0.00316 µM): 81.8%
viability, T/C (second compound 3.16 µM, first compound 0.01 µM): 75.1%
viability, T/C [12]: 73.8%
viability, T/C [13]: 62.2%
viability, T/C (second compound 10 µM, first compound 0.000316 µM): 0.17%
viability, T/C (second compound 10 µM, first compound 0.001 µM): 0.18%
viability, T/C (second compound 10 µM, first compound 0.00316 µM): 0.18%
viability, T/C (second compound 10 µM, first compound 0.01 µM): 0.16%
viability, T/C [14]: 0.17%
viability, T/C [15]: 0.21%

COc1cc(Nc2ncc3c(n2)-c2ccc(Cl)cc2C(c2c(F)cccc2OC)=NC3)ccc1C(=O)O
viability, T/C (compound 0.0316 µM): 80.7% [middle of 5 runs]
viability, T/C (compound 0.1 µM): 41.5% [middle of 5 runs]
viability, T/C (compound 0.316 µM): 32.4% [middle of 5 runs]
viability, T/C (compound 1 µM): 28.5% [middle of 5 runs]
viability, T/C (compound 3.16 µM): 18.7% [middle of 5 runs]
viability, T/C (compound 10 µM): 10.7% [middle of 5 runs]
IC50 (curve of compound): 89.4 nM [middle of 5 runs]

COc1cc2nc(C)nc(NC(C)c3cc(N)cc(C(F)(F)F)c3)c2cc1OC1CCOC1 (stereo not given)
viability, T/C (compound 1 µM): 92.5% [middle of 17 runs]
IC50 [16]: > 10 µM
IC50 [17]: > 10 µM
IC50 [18]: > 10 µM

COc1cc2nccc(Oc3ccc(NC(=O)C4(C(=O)Nc5ccc(F)cc5)CC4)cc3)c2cc1OC + C=CC(=O)N1CCN(c2nc(=O)n(-c3c(C)ccnc3C(C)C)c3nc(-c4c(O)cccc4F)c(F)cc23)C(C)C1
IC50 [1]: > 10 µM
IC50 [2]: > 10 µM
IC50 [3]: > 10 µM
IC50 [4]: > 10 µM
IC50 [5]: > 10 µM
viability, T/C [6]: 108%
viability, T/C [7]: 102%
viability, T/C [19]: 99.3%
viability, T/C [20]: 110%
viability, T/C [21]: 104%
viability, T/C [22]: 65.9%
viability, T/C [8]: 104%
viability, T/C [9]: 107%
viability, T/C [23]: 113%
viability, T/C [24]: 110%
viability, T/C [25]: 99.4%
viability, T/C [26]: 57.4%
viability, T/C [10]: 109%
viability, T/C [11]: 115%
viability, T/C [27]: 113%
viability, T/C [28]: 103%
viability, T/C [29]: 104%
viability, T/C [30]: 74.8%
viability, T/C [12]: 114%
viability, T/C [13]: 112%
viability, T/C [31]: 111%
viability, T/C [32]: 117%
viability, T/C [33]: 108%
viability, T/C [34]: 72.1%
viability, T/C [14]: 131%
viability, T/C [15]: 115%
viability, T/C (second compound 10 µM, first compound 0.316 µM): 111%
viability, T/C (second compound 10 µM, first compound 1 µM): 112%
viability, T/C (second compound 10 µM, first compound 3.16 µM): 90.8%
viability, T/C (second compound 10 µM, first compound 10 µM): 62.6%

C=CC(=O)N1CCN(c2nc(=O)n(-c3c(C)ccnc3C(C)C)c3nc(-c4c(O)cccc4F)c(F)cc23)C(C)C1 (stereo not given)
viability, T/C (compound 0.1 µM): 100% [middle of 17 runs]
IC50 [16]: > 10 µM
IC50 [17]: > 10 µM
IC50 [18]: > 10 µM

COc1cc2nccc(Oc3ccc(NC(=O)C4(C(=O)Nc5ccc(F)cc5)CC4)cc3)c2cc1OC + C=CC(=O)N1CCN(c2nc(OCC3CCCN3C)nc3c2CCN(c2cccc4cccc(C)c24)C3)CC1CC#N
IC50 (curve of first compound, second compound 0.0316 µM): > 10 µM
IC50 [1]: 9.1 µM
IC50 [2]: 9.15 µM
IC50 [3]: 6.79 µM
IC50 [4]: 0.839 µM
viability, T/C (second compound 0.0316 µM, first compound 0.0316 µM): 98.5%
viability, T/C (second compound 0.0316 µM, first compound 0.1 µM): 103%
viability, T/C (second compound 0.0316 µM, first compound 0.316 µM): 96.2%
viability, T/C (second compound 0.0316 µM, first compound 1 µM): 112%
viability, T/C (second compound 0.0316 µM, first compound 3.16 µM): 100%
viability, T/C (second compound 0.0316 µM, first compound 10 µM): 52.3%
viability, T/C [6]: 115%
viability, T/C [7]: 111%
viability, T/C [19]: 109%
viability, T/C [20]: 94.1%
viability, T/C [21]: 103%
viability, T/C [22]: 45%
viability, T/C [8]: 111%
viability, T/C [9]: 106%
viability, T/C [23]: 110%
viability, T/C [24]: 110%
viability, T/C [25]: 96%
viability, T/C [26]: 45.8%
viability, T/C [10]: 108%
viability, T/C [11]: 104%
viability, T/C [27]: 99.3%
viability, T/C [28]: 98.1%
viability, T/C [29]: 80.5%
viability, T/C [30]: 34.2%
viability, T/C [12]: 56.9%
viability, T/C [13]: 64.8%
viability, T/C [31]: 66.4%
viability, T/C [32]: 47.6%
viability, T/C [33]: 2.41%
viability, T/C [34]: 0.18%
